Source: patent US20240245694A1, “Tricyclic Compounds and their Uses” (Novartis AG, priority 2022, published 2024)

Tested on: SW48 cells
Assay: Proliferation assay SW48 (CellTiterGlo, 96 hours)
Type: cell-based
Conditions: Homo sapiens
Method in brief: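 Cells in RPMI-1640/10% FCS were seeded overnight (SW48 2'000, DLD1-WRN-KO 1'500 cells/well), then exposed to eight 3-fold compound dilutions at 0.1% DMSO. ATP luminescence relative to a day-0 plate gives % growth (0% stasis, −100% complete kill). GI50 is the geometric mean of ≥2 independent replicates.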

Row | SMILES | GI50 [nM]
1 | Cc1ncnc(C(=O)N2CCN(c3c4n(c5nc(C6=CCOCC6)nn5c3=O)[C@@H](C(=O)Nc3ccc(C(F)(F)F)cc3Cl)C[C@H]4C)C[C@H]2C)c1O [Example 18A, (7R,9R)—N-(2-chloro-4-(trifluoromethyl)phenyl)-2-(3,6-dihydro-2H-pyran-4-yl)-6-((R)-4-(5-hydroxy-6-methylpyrimidine-4-carbonyl)-3-methylpiperazin-1-yl)-7-methyl-5-oxo-5,7,8,9-tetrahydropyrrolo[1,2-c][1,2,4]triazolo[1,5-a]pyrimidine-9-carboxamide] | 40
2 | Cc1ncnc(C(=O)N2CCN(c3c4n(c5nc(C6=CCOCC6)nn5c3=O)[C@@H](C(=O)Nc3ccc(C(F)(F)F)cc3Cl)C[C@H]4C)[C@H]3CC[C@@H]32)c1O [Example 21A, (7R,9R)—N-(2-chloro-4-(trifluoromethyl)phenyl)-2-(3,6-dihydro-2H-pyran-4-yl)-6-((1S,6S)-5-(5-hydroxy-6-methylpyrimidine-4-carbonyl)-2,5-diazabicyclo[4.2.0]octan-2-yl)-7-methyl-5-oxo-5,7,8,9-tetrahydropyrrolo[1,2-c][1,2,4]triazolo[1,5-a]pyrimidine-9-carboxamide] | 6
